Counter-ions that a name gives are not always drawn.
What was measured:
[1] = system: M5076 murine reticulosarcoma; test: Antitumour activity (and toxic deaths) against M5076 murine reticulosarcoma transplanted s.c. in mice; format: in vivo, mouse (C75 B1/6 mice); settings: for A.U.C. % inhib / T.C. % (median survival time treated/control × 100) / TOX (number of toxic deaths/total number of mice) / TDG (Tumor Growth Delay) (1 g) / LTS (Long Terms Survivors) / Tox (number of toxic deaths/total number of mice) / Tumor free (mice tumor free at the end of the experiments): days 5, 9, 15; for TDG (Tumor Growth Delay) (1 g): time to reach 1 g tumor weight
Experimental: Antitumour activity of compound A1 on M5076.
The antitumour activity of A1, described in Example 13, was tested as follows:
All drug solutions were prepared immediately before use. Treatment was administered i.v. in a volume of 10 ml/Kg body weight at days 5,9 and 15.
Anthracyclines were dissolved in sterile water and the concentration was checked spectrophotometrically.
Lyophylized polymers were dissolved in water to give a starting solution of 25 mg anthracycline equivalent/ml according to the reported concentration,further dilutions were performed in water.
M5076 murine reticulosarcoma was obtained by serial i.m. passage and transplanted (5×10^5 cells/mouse) s.c. in C75 B1/6 mice to evaluate the activity on primary tumor.
Tumor growth was assessed by. caliper measurement, and the tumor weight estimated according to Geran etal., see Cancer Chemother. Rep. 3, 1 (1972).
The antitumor activity was determined in time (days) to reach one gramm tumor weight and is reported as tumor growth delay (TGD).
The median increase in survival time (T/C%) was calculated using the following formula: [formula]
Toxicity was evaluated on the basis of body weight reduction and gross finding main of spleen and liver reduction.
Neurotoxicity is determined as number of mice with lack of motor function. […]
The antitumor activity was tested with the same treatment schedule for 4'-epidoxorubicin.HCl and compound A4.

healthy C57B1F mice = test: Single-dose i.v. toxicity in healthy mice (LD10, LD50, therapeutic index); format: in vivo, mouse; settings: for LD10: Probit Analysis after 3-week recovery
Experimental: (§1) Toxicity was evaluated in healthy C57B1F mice, treatment i.v., with single doses of 4'-epidoxorubicin.HCl (13.2-16.15-19-20.6-25.2 and 33.2 mg/kg) and compound A4 (50-63-79-100-120-140 mg/kg)
(§2) For the determination of LD10 and LD= in healthy C57 B1F mice the Probit Analysis' after 3-week recovery was used.
(§3) The therapeutic index was calculated using the following formula: [formula]
(§4) Dose effective 50 is the dose causing 50% of tumor growth reduction.

[2] = as above; format: in vivo, mouse; settings: mouse, in vivo, iv; single dose i.v., healthy C57 B1/F mice, Probit Analysis after 3-week recovery
Experimental: as §1, §2, §3, §4

[3] = single dose i.v., healthy C57 B1/F mice
[4] = Table 2, 4.0 mg/kg (anthracycline equivalent) i.v.
[5] = Table 2, 5.0 mg/kg (anthracycline equivalent) i.v.
[6] = Table 2, 6.0 mg/kg (anthracycline equivalent) i.v.
[7] = Table 1, 30.0 mg/kg (anthracycline equivalent) i.v.
[8] = Table 1, 40.0 mg/kg (anthracycline equivalent) i.v.
[9] = Table 1, 50.0 mg/kg (anthracycline equivalent) i.v.

COc1cccc2c1C(=O)c1c(O)c3c(c(O)c1C2=O)C[C@@](O)(C(=O)CO)C[C@@H]3O[C@H]1C[C@H](N)[C@@H](O)[C@H](C)O1 [4'-epidoxorubicin.HCl, reference compound]
A.U.C. % inhib ([1]; Table 3, 5 mg/kg): 51%
T.C. % (median survival time treated/control × 100) ([1]; Table 3, 5 mg/kg): 105%
TOX (number of toxic deaths/total number of mice) ([1]; Table 3, 5 mg/kg): 0/9
TDG (Tumor Growth Delay) (1 g) ([1]; Table 3, 5 mg/kg): 22 days
A.U.C. % inhib ([1]; Table 3, 7.5 mg/kg): 90%
T.C. % (median survival time treated/control × 100) ([1]; Table 3, 7.5 mg/kg): 124%
TOX (number of toxic deaths/total number of mice) ([1]; Table 3, 7.5 mg/kg): 0/9
TDG (Tumor Growth Delay) (1 g) ([1]; Table 3, 7.5 mg/kg): 34 days
A.U.C. % inhib ([1]; Table 3, 10 mg/kg): 99%
T.C. % (median survival time treated/control × 100) ([1]; Table 3, 10 mg/kg): 125%
TOX (number of toxic deaths/total number of mice) ([1]; Table 3, 10 mg/kg): 0/9
TDG (Tumor Growth Delay) (1 g) ([1]; Table 3, 10 mg/kg): 40 days
LD10 (healthy C57B1F mice; [3]): 16.4 mg/kg
LD50 at 504 h [2]: 21.4 mg/kg

CC(=O)[C@]1(O)Cc2c(O)c3c(c(O)c2[C@@H](O[C@H]2C[C@H](N)[C@H](O)[C@H](C)O2)C1)C(=O)c1ccccc1C3=O [4-demethoxydaunorubicin, reference compound]
A.U.C. % inhib ([1]; Table 2, 1.0 mg/kg i.v.): 47%
LTS (Long Terms Survivors) ([1]; Table 2, 1.0 mg/kg i.v.): 0/9
T.C. % (median survival time treated/control × 100) ([1]; Table 2, 1.0 mg/kg i.v.): 142%
Tox (number of toxic deaths/total number of mice) ([1]; Table 2, 1.0 mg/kg i.v.): 0/9
Tumor free (mice tumor free at the end of the experiments) ([1]; Table 2, 1.0 mg/kg i.v.): 0/9
TDG (Tumor Growth Delay) (1 g) ([1]; Table 2, 1.0 mg/kg i.v.): 19 days
A.U.C. % inhib ([1]; Table 2, 1.5 mg/kg i.v.): 80%
LTS (Long Terms Survivors) ([1]; Table 2, 1.5 mg/kg i.v.): 0/9
T.C. % (median survival time treated/control × 100) ([1]; Table 2, 1.5 mg/kg i.v.): 160%
Tox (number of toxic deaths/total number of mice) ([1]; Table 2, 1.5 mg/kg i.v.): 0/9
Tumor free (mice tumor free at the end of the experiments) ([1]; Table 2, 1.5 mg/kg i.v.): 0/9
TDG (Tumor Growth Delay) (1 g) ([1]; Table 2, 1.5 mg/kg i.v.): 28 days

COc1cccc2c1C(=O)c1c(O)c3c(c(O)c1C2=O)C[C@@](O)(C(=O)CO)C[C@@H]3O[C@H]1C[C@H](N)[C@H](O)[C@H](C)O1 [doxorubicin, reference compound]
A.U.C. % inhib ([1]; Table 1, 7.5 mg/kg i.v.): 90%
LTS (Long Terms Survivors) ([1]; Table 1, 7.5 mg/kg i.v.): 0/26
Tox (number of toxic deaths/total number of mice) ([1]; Table 1, 7.5 mg/kg i.v.): 0/26
Tumor free (mice tumor free at the end of the experiments) ([1]; Table 1, 7.5 mg/kg i.v.): 0/26
TDG (Tumor Growth Delay) (1 g) ([1]; Table 1, 7.5 mg/kg i.v.): 35 days
A.U.C. % inhib ([1]; Table 1, 10.0 mg/kg i.v.): 100%
LTS (Long Terms Survivors) ([1]; Table 1, 10.0 mg/kg i.v.): 0/26
Tox (number of toxic deaths/total number of mice) ([1]; Table 1, 10.0 mg/kg i.v.): 3/26
Tumor free (mice tumor free at the end of the experiments) ([1]; Table 1, 10.0 mg/kg i.v.): 0/26
TDG (Tumor Growth Delay) (1 g) ([1]; Table 1, 10.0 mg/kg i.v.): 39 days

Copolymer of 3-methacryloylamino-2-hydroxypropane, 4'-epi-3'-N-(methacryloylglycyl-L-phenylalanyl-L-leuculglycyl)doxorubicin and 1-N-(methacryloylgylcyl)-2-hydrocypropane [A4]
A.U.C. % inhib ([1]; Table 3, 10 mg/kg): 100%
T.C. % (median survival time treated/control × 100) ([1]; Table 3, 10 mg/kg): 190%
TOX (number of toxic deaths/total number of mice) ([1]; Table 3, 10 mg/kg): 0/9
TDG (Tumor Growth Delay) (1 g) ([1]; Table 3, 10 mg/kg): 62 days
A.U.C. % inhib ([1]; Table 3, 20 mg/kg): 100%
T.C. % (median survival time treated/control × 100) ([1]; Table 3, 20 mg/kg): 219%
TOX (number of toxic deaths/total number of mice) ([1]; Table 3, 20 mg/kg): 0/9
TDG (Tumor Growth Delay) (1 g) ([1]; Table 3, 20 mg/kg): 62 days
A.U.C. % inhib ([1]; Table 3, 30 mg/kg): 100%
T.C. % (median survival time treated/control × 100) ([1]; Table 3, 30 mg/kg): 229%
TOX (number of toxic deaths/total number of mice) ([1]; Table 3, 30 mg/kg): 0/9
TDG (Tumor Growth Delay) (1 g) ([1]; Table 3, 30 mg/kg): 71 days
Activity against early M5076 murine reticulosarcoma compared with free drug ([1]; versus 4'-epidoxorubicin.HCl, same treatment schedule): more active than free drug at all tested doses
therapeutic index (healthy C57B1F mice; calculated by formula using dose effective 50 (dose causing 50% of tumor growth reduction)): 40
toxicity (healthy C57B1F mice; compared with 4'-epidoxorubicin.HCl): low toxicity
LD10 (healthy C57B1F mice; [3]): 128.0 mg/kg
LD50 (extrapolated value) (healthy C57B1F mice; single dose i.v., healthy C57 B1/F mice, Probit Analysis, extrapolated value, 30240 min): 389 mg/kg

Copolymer of 3-methacryloylamino-2-hyvdroxypropane, 4-demethoxy, 3'-N-(methacrylgylcyl-L-phenylalanyl-L-leucyl glycyl)daunorubicin and N-methacryloylglycine [A3]
A.U.C. % inhib [1, 4]: 100%
LTS (Long Terms Survivors) [1, 4]: 0/10
T.C. % (median survival time treated/control × 100) [1, 4]: 198%
Tox (number of toxic deaths/total number of mice) [1, 4]: 0/10
Tumor free (mice tumor free at the end of the experiments) [1, 4]: 0/10
TDG (Tumor Growth Delay) (1 g) [1, 4]: 49 days
A.U.C. % inhib [1, 5]: 100%
LTS (Long Terms Survivors) [1, 5]: 0/10
T.C. % (median survival time treated/control × 100) [1, 5]: 205%
Tox (number of toxic deaths/total number of mice) [1, 5]: 0/10
Tumor free (mice tumor free at the end of the experiments) [1, 5]: 0/10
TDG (Tumor Growth Delay) (1 g) [1, 5]: 50 days
A.U.C. % inhib [1, 6]: 100%
LTS (Long Terms Survivors) [1, 6]: 0/9
T.C. % (median survival time treated/control × 100) [1, 6]: 212%
Tox (number of toxic deaths/total number of mice) [1, 6]: 0/9
Tumor free (mice tumor free at the end of the experiments) [1, 6]: 0/9
TDG (Tumor Growth Delay) (1 g) [1, 6]: 55 days

Copolymer of 3-methacryloylamino-2hydroxypropane, 3'-N-(methacryloylgly-L-phenlalanyl-L-leucylqlycyl)doxorubicin and N-methacryloylqlycine [A1]
A.U.C. % inhib [1, 7]: 100%
LTS (Long Terms Survivors) [1, 7]: 4/10
T.C. % (median survival time treated/control × 100) [1, 7]: 378%
Tox (number of toxic deaths/total number of mice) [1, 7]: 0/10
Tumor free (mice tumor free at the end of the experiments) [1, 7]: 3/10
TDG (Tumor Growth Delay) (1 g) [1, 7]: 80 days
A.U.C. % inhib [1, 8]: 100%
LTS (Long Terms Survivors) [1, 8]: 6/10
T.C. % (median survival time treated/control × 100) [1, 8]: > 369%
Tox (number of toxic deaths/total number of mice) [1, 8]: 0/10
Tumor free (mice tumor free at the end of the experiments) [1, 8]: 5/10
A.U.C. % inhib [1, 9]: 100%
LTS (Long Terms Survivors) [1, 9]: 7/10
T.C. % (median survival time treated/control × 100) [1, 9]: > 369%
Tumor free (mice tumor free at the end of the experiments) [1, 9]: 7/10
Tox (number of toxic deaths/total number of mice) ([1]; Table 1, 50.0 mg/kg (anthracycline equivalent) i.v., footnote *Neurotoxicity): 2/10
